The values below come from US7074789B2, “Kinase inhibitors” (Amgen Inc., priority 1999, dated 2006).

Holding throughout (assay type): biochemical
One assay concerns the target T1, c-Met (Homo sapiens, UniProt P08581).
T1 construct: Kinases are expressed as either kinase domains or full length constructs; made in house
The assay is described as follows: Kinase inhibition assay (33P transfer), c-Met. The note with it: Table 2, kinase inhibition class; read-out: Met-1. The text has this: (§1) The inhibitor compounds described herein are screened in the following manner. Kinases suitable for use in the following protocol to determine kinase activity of the compounds described herein include, -but are not limited to: Lck, Lyn, Src, Fyn, Syk, Zap-70, Itk, Tec, Btk, EGFR, ErbB2, Kdr, Flt-1, Flt-3, Tek, c-Met, InsR, and AKT.
(§2) Kinases are expressed as either kinase domains or full length constructs fused to glutathione S-transferase (GST) or polyHistidine tagged fusion proteins in either E. colior Baculovirus-High Five expression systems. They are purified to near homogeneity by affinity chromatography essentially as previously described (Lehr et al., 1996; Gish et al., 1995). In some instances, kinases are co-expressed or mixed with purified or partially purified regulatory polypeptides prior to measurement of activity.
(§3) Kinase activity and inhibition are measured essentially by established protocols (Braunwalder et al., 1996). Briefly, The transfer of ^33PO4 from ATP to the synthetic substrates poly(Glu, Tyr) 4:1 or poly(Arg, Ser) 3:1 attached to the bioactive surface of microtiter plates serves as the basis to evaluate enzyme activity. After an incubation period, the amount of phosphate transferred is measured by first washing the plate with 0.5% phosphoric acid, adding liquid scintillant, and then counting in a liquid scintillation detector. The IC50 is determined by the concentration of compound that causes a 50% reduction in the amount of […] incorporated onto the substrate bound to the plate.

For another assay, the target named is T2, EGFR (Homo sapiens, UniProt P00533).
T2 construct: Kinases are expressed as either kinase domains or full length constructs; made in house
The assay is described as follows: Kinase inhibition assay (33P transfer), EGFR. As to conditions: Table 2, kinase inhibition class; read-out: EGFR-1.
Text: as §1, §2, §3

The target of another assay is T3, AKT (Homo sapiens, UniProt Q9Y243).
T3 construct: Kinases are expressed as either kinase domains or full length constructs; made in house
The assay is described as follows: Kinase inhibition assay (33P transfer), AKT. The note with it: Table 2, kinase inhibition class; read-out: AKT3-1.
Text: as §1
(§4) Kinases are expressed as either kinase domains or full length constructs fused to glutathione S-transferase (GST) or polyHistidine tagged fusion proteins in either E. colior Baculovirus-High Five expression systems. […] In some instances, kinases are co-expressed or mixed with purified or partially purified regulatory polypeptides prior to measurement of activity.
(§5) Briefly, The transfer of ^33PO4 from ATP to the synthetic substrates poly(Glu, Tyr) 4:1 or poly(Arg, Ser) 3:1 attached to the bioactive surface of microtiter plates serves as the basis to evaluate enzyme activity. After an incubation period, the amount of phosphate transferred is measured by first washing the plate with 0.5% phosphoric acid, adding liquid scintillant, and then counting in a liquid scintillation detector.

For a further assay, the target named is T4, Kdr (Homo sapiens, UniProt P35968).
T4 construct: Kinases are expressed as either kinase domains or full length constructs; made in house
Description: Kinase inhibition assay (33P transfer), Kdr. The note with it: Table 3; read-out: KDR-1.
Text: as §1, §4, §5

In a further assay the target is T5, Zap-70 (Homo sapiens, UniProt P43403).
T5 construct: Kinases are expressed as either kinase domains or full length constructs; made in house
T5 sequence (P43403 1-619): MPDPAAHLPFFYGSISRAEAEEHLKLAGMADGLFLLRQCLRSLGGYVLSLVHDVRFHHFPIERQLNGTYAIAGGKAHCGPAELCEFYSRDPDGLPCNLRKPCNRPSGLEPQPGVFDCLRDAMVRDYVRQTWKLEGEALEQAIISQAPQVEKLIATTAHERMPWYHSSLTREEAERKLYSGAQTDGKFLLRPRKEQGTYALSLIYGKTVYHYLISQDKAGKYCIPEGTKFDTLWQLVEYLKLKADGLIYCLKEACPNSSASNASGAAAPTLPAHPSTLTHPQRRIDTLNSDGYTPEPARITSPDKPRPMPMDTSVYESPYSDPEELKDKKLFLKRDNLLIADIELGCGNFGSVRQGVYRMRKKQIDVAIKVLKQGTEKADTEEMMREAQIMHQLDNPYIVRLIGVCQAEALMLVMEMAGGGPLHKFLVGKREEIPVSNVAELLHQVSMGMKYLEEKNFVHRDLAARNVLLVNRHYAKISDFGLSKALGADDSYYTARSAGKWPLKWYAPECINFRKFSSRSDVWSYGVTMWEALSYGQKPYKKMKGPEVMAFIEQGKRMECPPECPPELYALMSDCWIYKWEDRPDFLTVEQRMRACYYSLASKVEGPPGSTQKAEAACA
The assay is described as follows: Kinase inhibition assay (33P transfer), Zap-70. The note with it: Table 3; read-out: Zap-1.
Text: as §1, §4, §5

The target in the next assay is T6, Lck (Homo sapiens, UniProt P06239).
T6 construct: Kinases are expressed as either kinase domains or full length constructs; made in house
Description: Kinase inhibition assay (33P transfer), Lck. As to conditions: Table 3; read-out: Lck-1.
Text: as §1, §4, §5

The target of another assay is T7, Itk (Homo sapiens, UniProt Q08881).
T7 construct: Kinases are expressed as either kinase domains or full length constructs; made in house
T7 sequence (Q08881 1-620): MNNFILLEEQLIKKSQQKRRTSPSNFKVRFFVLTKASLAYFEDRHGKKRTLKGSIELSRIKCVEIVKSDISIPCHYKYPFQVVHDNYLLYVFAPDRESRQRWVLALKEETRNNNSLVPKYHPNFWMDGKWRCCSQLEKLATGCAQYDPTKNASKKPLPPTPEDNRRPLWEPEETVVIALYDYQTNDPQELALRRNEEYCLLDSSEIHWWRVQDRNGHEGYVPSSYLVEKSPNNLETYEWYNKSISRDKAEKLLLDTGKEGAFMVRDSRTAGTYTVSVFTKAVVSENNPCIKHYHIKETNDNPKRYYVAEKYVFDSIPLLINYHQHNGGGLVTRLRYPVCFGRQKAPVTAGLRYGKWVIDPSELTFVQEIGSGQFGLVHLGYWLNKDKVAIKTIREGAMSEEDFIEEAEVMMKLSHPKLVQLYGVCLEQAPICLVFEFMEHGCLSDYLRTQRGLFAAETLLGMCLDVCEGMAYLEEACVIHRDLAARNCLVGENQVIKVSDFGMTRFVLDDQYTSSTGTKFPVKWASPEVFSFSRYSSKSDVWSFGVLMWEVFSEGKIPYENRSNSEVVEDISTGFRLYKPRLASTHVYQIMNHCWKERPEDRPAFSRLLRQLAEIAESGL
The assay is described as follows: Kinase inhibition assay (33P transfer), Itk. As to conditions: Table 3; read-out: Itk-1.
Text: as §1, §2, §3

T6 sequence (P06239 whole entry, species assumed, the tested form may be a part): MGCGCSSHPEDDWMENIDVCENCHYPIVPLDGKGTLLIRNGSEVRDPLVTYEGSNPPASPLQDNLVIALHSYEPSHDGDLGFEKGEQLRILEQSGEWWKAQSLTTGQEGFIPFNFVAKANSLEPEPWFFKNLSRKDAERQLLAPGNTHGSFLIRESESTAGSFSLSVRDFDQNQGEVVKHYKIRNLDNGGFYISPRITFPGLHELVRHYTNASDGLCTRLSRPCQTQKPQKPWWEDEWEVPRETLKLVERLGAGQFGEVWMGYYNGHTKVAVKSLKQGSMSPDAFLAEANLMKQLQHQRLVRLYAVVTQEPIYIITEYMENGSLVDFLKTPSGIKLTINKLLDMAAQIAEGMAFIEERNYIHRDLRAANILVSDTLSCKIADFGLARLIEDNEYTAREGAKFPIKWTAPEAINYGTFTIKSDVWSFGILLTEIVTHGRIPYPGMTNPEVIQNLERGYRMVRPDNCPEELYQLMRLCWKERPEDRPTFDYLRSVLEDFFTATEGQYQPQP
T3 sequence (Q9Y243 whole entry, the tested form may be a part): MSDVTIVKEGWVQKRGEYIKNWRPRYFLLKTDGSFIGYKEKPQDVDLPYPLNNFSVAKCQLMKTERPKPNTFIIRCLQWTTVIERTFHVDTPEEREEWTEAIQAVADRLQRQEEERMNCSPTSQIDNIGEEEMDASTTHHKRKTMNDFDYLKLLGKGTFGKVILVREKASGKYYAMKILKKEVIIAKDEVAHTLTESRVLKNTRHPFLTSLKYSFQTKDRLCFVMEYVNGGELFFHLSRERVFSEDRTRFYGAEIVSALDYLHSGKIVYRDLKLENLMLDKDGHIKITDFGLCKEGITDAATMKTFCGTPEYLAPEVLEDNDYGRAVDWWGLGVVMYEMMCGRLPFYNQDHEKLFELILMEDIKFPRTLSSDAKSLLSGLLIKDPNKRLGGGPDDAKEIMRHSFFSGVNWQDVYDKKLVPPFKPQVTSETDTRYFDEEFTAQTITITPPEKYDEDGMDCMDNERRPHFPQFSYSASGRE
T4 sequence (P35968 20-1356, species assumed): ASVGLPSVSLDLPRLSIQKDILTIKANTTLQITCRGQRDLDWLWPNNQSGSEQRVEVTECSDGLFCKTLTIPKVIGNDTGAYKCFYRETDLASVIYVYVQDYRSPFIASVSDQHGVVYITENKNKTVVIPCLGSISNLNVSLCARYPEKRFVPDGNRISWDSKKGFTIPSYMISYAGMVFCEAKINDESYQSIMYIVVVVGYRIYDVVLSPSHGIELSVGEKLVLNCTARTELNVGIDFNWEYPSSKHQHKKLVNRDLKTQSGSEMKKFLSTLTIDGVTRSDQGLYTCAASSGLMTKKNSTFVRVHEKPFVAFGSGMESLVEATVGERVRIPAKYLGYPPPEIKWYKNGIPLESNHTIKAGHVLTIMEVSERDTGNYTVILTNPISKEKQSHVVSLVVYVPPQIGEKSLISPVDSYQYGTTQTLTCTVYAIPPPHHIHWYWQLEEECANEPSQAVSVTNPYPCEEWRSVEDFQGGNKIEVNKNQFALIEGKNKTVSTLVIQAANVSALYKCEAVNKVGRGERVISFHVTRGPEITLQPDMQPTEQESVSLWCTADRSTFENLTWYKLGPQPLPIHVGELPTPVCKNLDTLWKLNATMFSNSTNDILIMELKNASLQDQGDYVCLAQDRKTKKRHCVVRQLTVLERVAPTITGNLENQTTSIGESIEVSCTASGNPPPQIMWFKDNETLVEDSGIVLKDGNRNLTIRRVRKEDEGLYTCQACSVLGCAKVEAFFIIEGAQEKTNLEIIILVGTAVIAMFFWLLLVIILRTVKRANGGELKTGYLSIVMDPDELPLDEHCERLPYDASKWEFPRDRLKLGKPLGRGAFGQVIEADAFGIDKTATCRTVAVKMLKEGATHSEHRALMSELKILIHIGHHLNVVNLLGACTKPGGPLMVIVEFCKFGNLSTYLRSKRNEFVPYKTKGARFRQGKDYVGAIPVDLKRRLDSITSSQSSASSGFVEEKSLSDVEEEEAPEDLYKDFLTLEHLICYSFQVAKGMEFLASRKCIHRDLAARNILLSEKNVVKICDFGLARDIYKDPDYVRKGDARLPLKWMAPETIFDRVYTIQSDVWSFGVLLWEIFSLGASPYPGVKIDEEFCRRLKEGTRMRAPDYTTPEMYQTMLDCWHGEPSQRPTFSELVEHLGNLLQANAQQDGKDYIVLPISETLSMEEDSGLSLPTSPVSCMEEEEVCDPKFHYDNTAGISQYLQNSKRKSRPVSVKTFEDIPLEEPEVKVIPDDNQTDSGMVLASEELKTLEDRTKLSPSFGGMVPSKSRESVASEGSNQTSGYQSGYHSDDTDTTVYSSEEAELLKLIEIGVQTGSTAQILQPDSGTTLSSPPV
T1 sequence (P08581 25-1390): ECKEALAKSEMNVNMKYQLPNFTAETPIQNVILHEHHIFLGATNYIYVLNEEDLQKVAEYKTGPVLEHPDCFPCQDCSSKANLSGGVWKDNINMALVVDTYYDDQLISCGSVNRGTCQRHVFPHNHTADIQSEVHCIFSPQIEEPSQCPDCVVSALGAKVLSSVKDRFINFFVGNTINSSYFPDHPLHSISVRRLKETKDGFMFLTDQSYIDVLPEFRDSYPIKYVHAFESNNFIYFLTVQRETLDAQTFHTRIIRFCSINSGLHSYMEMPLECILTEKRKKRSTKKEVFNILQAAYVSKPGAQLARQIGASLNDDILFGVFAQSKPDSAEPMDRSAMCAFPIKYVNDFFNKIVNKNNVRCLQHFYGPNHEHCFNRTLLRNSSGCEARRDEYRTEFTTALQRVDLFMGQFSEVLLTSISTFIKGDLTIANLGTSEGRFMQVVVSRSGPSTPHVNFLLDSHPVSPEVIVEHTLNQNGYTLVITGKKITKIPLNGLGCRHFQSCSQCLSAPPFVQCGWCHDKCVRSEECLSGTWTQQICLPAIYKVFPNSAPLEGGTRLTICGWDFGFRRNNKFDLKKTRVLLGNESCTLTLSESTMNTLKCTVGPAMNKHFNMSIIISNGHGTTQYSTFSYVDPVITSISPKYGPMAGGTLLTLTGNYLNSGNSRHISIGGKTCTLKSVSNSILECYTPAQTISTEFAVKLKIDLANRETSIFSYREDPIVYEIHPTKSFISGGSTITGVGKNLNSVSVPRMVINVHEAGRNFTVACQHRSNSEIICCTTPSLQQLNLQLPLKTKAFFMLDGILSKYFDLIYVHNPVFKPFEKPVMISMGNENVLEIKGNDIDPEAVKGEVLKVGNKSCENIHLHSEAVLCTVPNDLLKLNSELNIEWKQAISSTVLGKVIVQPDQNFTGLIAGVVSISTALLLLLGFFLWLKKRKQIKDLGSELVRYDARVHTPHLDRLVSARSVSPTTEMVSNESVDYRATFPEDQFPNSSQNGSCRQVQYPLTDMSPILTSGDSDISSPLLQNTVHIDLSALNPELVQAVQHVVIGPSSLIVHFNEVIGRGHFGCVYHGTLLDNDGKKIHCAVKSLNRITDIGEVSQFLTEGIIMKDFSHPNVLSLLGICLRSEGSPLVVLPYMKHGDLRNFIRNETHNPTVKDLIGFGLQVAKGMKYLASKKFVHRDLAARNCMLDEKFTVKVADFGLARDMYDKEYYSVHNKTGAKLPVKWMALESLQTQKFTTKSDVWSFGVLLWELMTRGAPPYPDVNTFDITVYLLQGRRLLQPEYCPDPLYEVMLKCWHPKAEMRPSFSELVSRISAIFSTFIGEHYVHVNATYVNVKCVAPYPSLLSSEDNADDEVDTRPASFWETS
T2 sequence (P00533 25-1210, species assumed): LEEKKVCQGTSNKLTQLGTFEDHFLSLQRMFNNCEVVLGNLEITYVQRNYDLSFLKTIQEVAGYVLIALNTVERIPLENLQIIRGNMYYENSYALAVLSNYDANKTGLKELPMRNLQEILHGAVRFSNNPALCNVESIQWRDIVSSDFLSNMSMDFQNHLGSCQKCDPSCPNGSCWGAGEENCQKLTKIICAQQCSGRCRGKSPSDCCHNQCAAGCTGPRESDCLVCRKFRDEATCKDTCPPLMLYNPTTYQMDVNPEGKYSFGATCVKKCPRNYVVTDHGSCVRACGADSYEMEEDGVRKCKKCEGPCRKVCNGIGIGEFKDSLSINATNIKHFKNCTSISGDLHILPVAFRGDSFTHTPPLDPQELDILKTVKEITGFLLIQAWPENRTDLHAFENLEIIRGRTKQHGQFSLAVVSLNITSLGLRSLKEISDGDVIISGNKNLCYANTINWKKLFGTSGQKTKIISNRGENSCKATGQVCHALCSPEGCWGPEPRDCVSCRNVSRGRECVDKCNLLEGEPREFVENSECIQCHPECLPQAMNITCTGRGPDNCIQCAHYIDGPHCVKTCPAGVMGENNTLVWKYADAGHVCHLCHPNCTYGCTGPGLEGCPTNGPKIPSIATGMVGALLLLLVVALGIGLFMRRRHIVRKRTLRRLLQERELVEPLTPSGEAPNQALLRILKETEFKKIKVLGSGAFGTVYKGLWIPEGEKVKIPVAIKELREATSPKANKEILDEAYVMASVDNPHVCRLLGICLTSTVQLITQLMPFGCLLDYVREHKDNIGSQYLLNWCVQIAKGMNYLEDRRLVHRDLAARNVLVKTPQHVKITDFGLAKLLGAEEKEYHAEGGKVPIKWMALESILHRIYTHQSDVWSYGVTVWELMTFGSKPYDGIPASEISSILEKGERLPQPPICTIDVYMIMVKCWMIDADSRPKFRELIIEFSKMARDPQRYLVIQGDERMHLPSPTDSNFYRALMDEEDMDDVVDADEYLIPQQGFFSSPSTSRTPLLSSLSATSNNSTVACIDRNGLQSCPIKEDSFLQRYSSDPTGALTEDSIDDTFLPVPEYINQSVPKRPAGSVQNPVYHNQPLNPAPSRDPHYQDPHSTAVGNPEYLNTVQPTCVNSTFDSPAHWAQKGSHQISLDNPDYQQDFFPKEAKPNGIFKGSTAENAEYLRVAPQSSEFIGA

For the compound `COc1cc(Nc2ncnc(-c3ccnc(NCCCN)c3)n2)cc(OC)c1OC` [Compound 45], the IC50 at c-Met is above 10.9 µM; on EGFR it was above 10.9 µM; at AKT it was above 10.9 µM; at Kdr it was above 10.9 µM; on Zap-70, above 10.9 µM; at Lck, 0.972 to 5.83 µM. Further, the IC50 at Itk is above 10.9 µM.

With `CNc1ncnc(Nc2cc(OC)c(OC)c(OC)c2)n1` [Compound 409], the IC50 at c-Met is above 15.4 µM; on EGFR it was above 15.4 µM; on AKT it was above 15.4 µM; at Kdr, above 15.4 µM; on Zap-70 it was above 15.4 µM; at Lck, 12 to 15.4 µM. At Itk, the IC50 was above 15.4 µM.

For `NC(=O)c1ccc(Nc2ncnc(-n3c(=O)[nH]c4ccccc43)n2)cc1` [Compound 419], the IC50 at c-Met is above 13 µM; on EGFR, above 13 µM; on AKT, above 13 µM; on Kdr, 1.15 to 6.91 µM; at Zap-70 it was above 13 µM; at Lck, above 13 µM. The IC50 on Itk was above 13 µM.

Regarding `NC(=O)c1cccc(Nc2ncnc(-n3c(=O)[nH]c4ccccc43)n2)c1` [Compound 420], the IC50 was above 13 µM on c-Met; above 13 µM on EGFR; above 13 µM on AKT; 1.15 to 6.91 µM on Kdr; above 13 µM at Zap-70; above 13 µM at Lck. The IC50 at Itk was above 13 µM.

For `COc1ncnc(Nc2cc(OC)c(OC)c(OC)c2)n1` [Compound 421], the IC50 at c-Met, on EGFR, on AKT, on Kdr, on Zap-70 and at Lck was above 15.4 µM in each case. The IC50 on Itk is above 15.4 µM.

For the compound `COc1cc(Nc2ncnc(-n3c(=O)oc4ccccc43)n2)cc(OC)c1OC` [Compound 423], the IC50 on c-Met was above 11.4 µM; at EGFR, 1.01 to 6.07 µM; at AKT, 6.07 to 8.85 µM; on Kdr, 1.01 to 6.07 µM; at Zap-70, above 11.4 µM; on Lck, 1.01 to 6.07 µM. Besides, at Itk, the IC50 is above 11.4 µM.

Turning to `COc1cc(Nc2ncnc(-n3c(=O)sc4ccccc43)n2)cc(OC)c1OC` [Compound 424], the IC50 on c-Met was above 10.9 µM; at EGFR, above 10.9 µM; on AKT, above 10.9 µM; at Kdr, 5.83 to 8.51 µM; at Zap-70, above 10.9 µM; on Lck, above 10.9 µM. For the same compound, the IC50 on Itk was above 10.9 µM.

With `COc1cc(Nc2ncnc(-n3c(=O)sc4cc(Br)ccc43)n2)cc(OC)c1OC` [Compound 426], the IC50 at c-Met, on EGFR, on AKT, at Kdr, at Zap-70 and on Lck was above 9.18 µM throughout. For the same compound, on Itk, the IC50 was above 9.18 µM.

With `COc1cc(Nc2ncnc(-c3ccc(N4CCOCC4)nc3)n2)cc(OC)c1OC` [Compound 434], the IC50 at c-Met, on EGFR, at AKT, at Kdr, on Zap-70 and on Lck was above 10.6 µM throughout. The IC50 at Itk was above 10.6 µM.

On to `COc1cc(Nc2ncnc(-n3c(NC(=O)c4ccccc4)nc4ccccc43)n2)cc(OC)c1OC` [Compound 435], for which the IC50 on c-Met, on EGFR, at AKT, on Kdr, at Zap-70 and at Lck was above 9.04 µM throughout. On Itk, the IC50 is above 9.04 µM.

With `COc1cc(Nc2ncnc(-c3ccc(N4CCNCC4)nc3)n2)cc(OC)c1OC` [Compound 436], the IC50 at c-Met was above 10.6 µM; on EGFR it was 8.26 to 10.6 µM; at AKT, above 10.6 µM; at Kdr it was 8.26 to 10.6 µM; at Zap-70, above 10.6 µM; at Lck it was above 10.6 µM. Moreover, the IC50 on Itk is above 10.6 µM.

Regarding `CC[C@H]1CN(c2ccc(-c3ncnc(Nc4cc(OC)c(OC)c(OC)c4)n3)cn2)CCN1` [Compound 446], the IC50 at c-Met, at EGFR, at AKT, on Kdr, at Zap-70 and at Lck was above 9.97 µM throughout. Further, the IC50 at Itk was above 9.97 µM.

Regarding `CCN(CC)CCCNc1ccc(-c2ncnc(Nc3cc(OC)c(OC)c(OC)c3)n2)cn1` [Compound 448], the IC50 is above 9.62 µM on c-Met; above 9.62 µM on EGFR; above 9.62 µM at AKT; 5.13 to 7.49 µM at Kdr; above 9.62 µM on Zap-70; 0.855 to 5.13 µM at Lck. Further, the IC50 at Itk was above 9.62 µM.

With `COc1cc(Nc2ncnc(-c3ccc(N(C)C)nc3)n2)cc(OC)c1OC` [Compound 449], the IC50 on c-Met, at EGFR, on AKT, at Kdr, at Zap-70 and at Lck was above 11.8 µM throughout. In addition, at Itk, the IC50 is above 11.8 µM.

As for `NC(=O)[C@H](CO)Nc1ncnc(-n2c(=O)[nH]c3ccccc32)n1` [Compound 450], the IC50 on c-Met, at EGFR, at AKT, on Kdr, at Zap-70 and at Lck was above 14.3 µM in each case. The IC50 on Itk is above 14.3 µM.

In the case of `NS(=O)(=O)c1ccc(Nc2ncnc(-n3c(=O)[nH]c4ccccc43)n2)cc1` [Compound 451], the IC50 on c-Met is above 11.7 µM; at EGFR, above 11.7 µM; on AKT, 9.13 to 11.7 µM; on Kdr it was 1.04 to 6.26 µM; at Zap-70, above 11.7 µM; on Lck, 1.04 to 6.26 µM. The IC50 at Itk is above 11.7 µM.

For the compound `CC(=O)NS(=O)(=O)c1ccc(Nc2ncnc(-n3c(=O)[nH]c4ccccc43)n2)cc1` [Compound 452], the IC50 on c-Met was above 10.6 µM; on EGFR it was above 10.6 µM; on AKT, above 10.6 µM; at Kdr, 0.94 to 5.64 µM; at Zap-70, above 10.6 µM; at Lck, above 10.6 µM. Besides, on Itk, the IC50 is above 10.6 µM.
